Columns and labels:
Assay type in all cases: in vivo, human
[1] = system: drug naive patients with type 2 diabetes mellitus; test: Double-blind first line therapy clinical study: hemoglobin A1c (HbA1c); conditions: for frequency of subjects achieving glycemic target of HbA1c<7%: following 20 weeks of double-blind therapy; for glycemic response for baseline HbA1c levels >9%: initial therapy
Description: The dosage strengths of fixed combination product evaluated included metformin 250 mg with glyburide 1.25 mg, and metformin 500 mg with glyburide 2.5 mg. Glycemic control was assessed using Hemoglobin A1c (HbA1c), the gold-standard measure of long-term glycemic control. Mean change from baseline in HbA1c following a 20 week treatment period (4 weeks stable once daily dose, 4 week titration and 12 weeks stable dose) were compared. The treatment phase continued for an additional 12 weeks to assess durability of efficacy. This study was a 34 week, multicenter, randomized, placebo-controlled, double-blind, parallel study with an optional long-term, open-label treatment phase. The primary outcome variable for efficacy was the change from baseline in HbA1c of the two combination therapies relative to placebo following 20 weeks of randomized treatment. 2. […] Therapeutic plasma glucose response will be defined as a FPG<126 mg/dL (based on current ADA guidelines for FPG). […] Patients were drug naive or had no oral antihyperglycemic therapy for the 2 months prior to screening. […] However, recruitment continued for up to 6 months to recruit up to a maximum of 150 patients per arm to provide additional safety information. The design included 3 periods as follows: Period B began the randomized, double-blind, parallel quadruple dummy treatment phase. Eligible patients were randomized to 1 of 5 study arms which included placebo, glyburide monotherapy, metformin monotherapy, and two different dose strengths of fixed combination metformin/glyburide product (Examples 1 and 2). Subjects were maintained on once daily dosing for a 4 week period so that the contribution of the individual components of the combination product can be assessed by short term glycemic parameters. Period C was the continuation of the randomized, double-blind treatment phase. Subjects were titrated for glycemic control over the first four weeks then dose was maintained for a 24 week stable dose treatment segment. Analysis for the primary outcome, the change from baseline in HbA1c of the two combination therapies (Examples 1 and 2) relative to placebo, was assessed at week 16 of Period C which was after 20 weeks of randomized, double-blind treatment. This was done at this time as there had been adequate time for stabilization of HbA1c and for safety reasons as it was anticipated that a high number of placebo treated patients may have had to discontinue randomized study medication due to insufficient glycemic control as treatment duration was extended. […] The study remained blinded and those subjects who discontinued randomized study drug due to lack of efficacy were eligible to begin the long-term, open-label treatment phase with fixed combination product. Following completion of the single-blind lead-in phase (Period A), qualifying subjects commenced therapy in the randomized, double-blind treatment phase (Period B). […] Following completion of the 4 week stable once daily dose phase (Period B) subjects continued the same randomized therapy in the 28 week titration/stable dose treatment phase (Period C). Study medication was titrated at visits Cl, C15 and C29. Medication was dosed with the first morning meal and with the evening meal. […] After the 4 week titration segment in Period C, subjects continued on a stable dose of study medication for the remainder of Period C.

[2] = system: drug naive patients with type 2 diabetes mellitus; test: Double-blind first line therapy clinical study: post-prandial glucose (PPG) and PPG excursion; conditions: for 2-hour postprandial glucose excursion from a fasting baseline: placebo 40.3 mg/dL; for decrease in post-prandial glucose excursion: week 20
Description: The term “post-prandial excursion” as employed herein refers to the difference between post-prandial glucose (PPG) and fasting plasma glucose (FPG). […] The dosage strengths of fixed combination product evaluated included metformin 250 mg with glyburide 1.25 mg, and metformin 500 mg with glyburide 2.5 mg. Glycemic control was assessed using Hemoglobin A1c (HbA1c), the gold-standard measure of long-term glycemic control. Mean change from baseline in HbA1c following a 20 week treatment period (4 weeks stable once daily dose, 4 week titration and 12 weeks stable dose) were compared. The treatment phase continued for an additional 12 weeks to assess durability of efficacy. This study was a 34 week, multicenter, randomized, placebo-controlled, double-blind, parallel study with an optional long-term, open-label treatment phase. […] 3. […] Patients were drug naive or had no oral antihyperglycemic therapy for the 2 months prior to screening. […] However, recruitment continued for up to 6 months to recruit up to a maximum of 150 patients per arm to provide additional safety information. The design included 3 periods as follows: Period B began the randomized, double-blind, parallel quadruple dummy treatment phase. Eligible patients were randomized to 1 of 5 study arms which included placebo, glyburide monotherapy, metformin monotherapy, and two different dose strengths of fixed combination metformin/glyburide product (Examples 1 and 2). Subjects were maintained on once daily dosing for a 4 week period so that the contribution of the individual components of the combination product can be assessed by short term glycemic parameters. Period C was the continuation of the randomized, double-blind treatment phase. Subjects were titrated for glycemic control over the first four weeks then dose was maintained for a 24 week stable dose treatment segment. Analysis for the primary outcome, the change from baseline in HbA1c of the two combination therapies (Examples 1 and 2) relative to placebo, was assessed at week 16 of Period C which was after 20 weeks of randomized, double-blind treatment. This was done at this time as there had been adequate time for stabilization of HbA1c and for safety reasons as it was anticipated that a high number of placebo treated patients may have had to discontinue randomized study medication due to insufficient glycemic control as treatment duration was extended. […] The study remained blinded and those subjects who discontinued randomized study drug due to lack of efficacy were eligible to begin the long-term, open-label treatment phase with fixed combination product. Following completion of the single-blind lead-in phase (Period A), qualifying subjects commenced therapy in the randomized, double-blind treatment phase (Period B). […] Following completion of the 4 week stable once daily dose phase (Period B) subjects continued the same randomized therapy in the 28 week titration/stable dose treatment phase (Period C). Study medication was titrated at visits Cl, C15 and C29. Medication was dosed with the first morning meal and with the evening meal. […] After the 4 week titration segment in Period C, subjects continued on a stable dose of study medication for the remainder of Period C.

[3] = system: drug naive patients with type 2 diabetes mellitus; test: Double-blind first line therapy clinical study: body weight and plasma lipid profile; conditions: as glycemic control improved
From the text: This study was a 34 week, multicenter, randomized, placebo-controlled, double-blind, parallel study with an optional long-term, open-label treatment phase. […] Patients were drug naive or had no oral antihyperglycemic therapy for the 2 months prior to screening. […] However, recruitment continued for up to 6 months to recruit up to a maximum of 150 patients per arm to provide additional safety information. The design included 3 periods as follows: Period B began the randomized, double-blind, parallel quadruple dummy treatment phase. Eligible patients were randomized to 1 of 5 study arms which included placebo, glyburide monotherapy, metformin monotherapy, and two different dose strengths of fixed combination metformin/glyburide product (Examples 1 and 2). Subjects were maintained on once daily dosing for a 4 week period so that the contribution of the individual components of the combination product can be assessed by short term glycemic parameters. Period C was the continuation of the randomized, double-blind treatment phase. […] Analysis for the primary outcome, the change from baseline in HbA1c of the two combination therapies (Examples 1 and 2) relative to placebo, was assessed at week 16 of Period C which was after 20 weeks of randomized, double-blind treatment. […]

[4] = Week 20 of double-blind therapy
[5] = Week 32 of double-blind therapy

| Compound | mean HbA1c level [1, 4] [%] | mean HbA1c level [1, 5] [%] | frequency of subjects achieving glycemic target of HbA1c<7% [1] [%] | glycemic response for baseline HbA1c levels >9% [1] | 2-hour postprandial glucose excursion from a fasting baseline [2] [mg/dL] | decrease in post-prandial glucose excursion [2] | early weight gain [3] [kg] | postprandial glucose excursion lowering, comparison in words ([2]; evaluating the excursion rather than the absolute value) |
| --- | --- | --- | --- | --- | --- | --- | --- | --- |
| COc1ccc(Cl)cc1C(=O)NCCc1ccc(S(=O)(=O)NC(=O)NC2CCCCC2)cc1 [glyburide] | 6.64 | 6.78 | 60 | plateauing of glycemic response | 38.2 | 6.8 | 2 | – |
| CN(C)C(=N)N=C(N)N [metformin] | 6.79 | 6.96 | 50 | plateauing of glycemic response | 29.5 | 15.2 | – | better postprandial glucose lowering than glyburide and placebo |

— patent publication US6586438B2, “Antidiabetic formulation and method” (Bristol-Myers Squibb Co., priority 1999, dated 2003)
